Data: patent publication US20120252721A1 (priority 2011, published 2012)

What was measured:
[1] = test system: HCV Con1 subgenomic replicon (GS4.1 cells); experiment: HCV replicon assay (NS5A ELISA, 72 hrs); format: cell-based; conditions: Hepatitis C virus
Description: Huh-7 cells containing HCV Con1 subgenomic replicon (GS4.1 cells) were grown in Dulbecco's Modified Eagle Medium (DMEM) supplemented with 10% fetal bovine serum (FBS), 2 mM L-glutamine, 110 mg/L sodium pyruvate, 1× non-essential amino acids, 100 U/mL penicillin-streptomycin, and 0.5 mg/mL G418 (Invitrogen). For dose-response testing, the cells were seeded in 96-well plates at 7.5×10^3 cells/well in a volume of 50 μL, and incubated at 37° C./5% CO2. Three hours after plating, 50 μL often 2-fold serial dilutions of compounds (highest concentration, 75 μM) were added, and cell cultures were incubated at 37° C./5% CO2 in the presence of 0.5% DMSO. Alternatively, compounds were tested at a single concentration of 15 μM. In all cases, Huh-7 cells lacking the HCV replicon served as negative control. The cells were incubated in the presence of compounds for 72 hrs after which they were monitored for expression of the NS5A protein by enzyme-linked immunosorbent assay (ELISA). For this, the plates were then fixed for 1 min with acetone/methanol (1:1, v/v), washed twice with phosphate-buffered saline (PBS), 0.1% Tween 20, blocked for 1 hr at room temperature with TNE buffer containing 10% FBS and then incubated for 2 hr at 37° C. with the anti-NS5A mouse monoclonal antibody A-236 (ViroGen) diluted in the same buffer. After washing three times with PBS, 0.1% Tween 20, the cells were incubated 1 hr at 37° C. with anti-mouse immunoglobulin G-peroxidase conjugate in TNE, 10% FBS. After washing as described above, the reaction was developed with O-phenylenediamine (Zymed). The reaction was stopped after 30 min with 2 NH2SO4, and absorbance was read at 492 nm using Sunrise Tecan spectrophotometer. EC50 values were determined from the % inhibition versus concentration data using a sigmoidal non-linear regression analysis based on four parameters with Tecan Magellan software.

[2] = in vitro; format: cell-based; conditions: human; GS4.1 cells, cellular viability
Description: For cytotoxicity evaluation, GS4.1 cells were treated with compounds as described above and cellular viability was monitored using the Cell Titer 96 AQeous One Solution Cell Proliferation Assay (Promega). CC50 values were determined from the % cytotoxicity versus concentration data with Tecan Magellan software as described above.

Structure (SMILES) | EC50 [1] | CC50 [2]
COC(=O)N[C@H](C(=O)N1CCC[C@H]1c1ncc(-c2ccc(-c3cn4cc(NC(=O)[C@@H]5CCCN5C(=O)[C@H](NC(=O)OC(C)(C)C)c5ccccc5)nc4s3)cc2)[nH]1)C(C)C [Compound A1, (S,S,S,R)-[1-(2-{5-[4-(6-{[1-(2-tert-butoxycarbonylamino-2-phenyl-acetyl)-pyrrolidine-2-carbonyl]-amino}imidazo[2,1-b]thiazol-2-yl)-phenyl]-1H-imidazol-2-yl}pyrrolidine-1-carbonyl)-2-methyl-propyl]-carbamic acid methyl ester] | < 0.001 µM | > 75 µM
COC(=O)N[C@H](C(=O)N1CCC[C@H]1C(=O)Nc1cn2cc(-c3ccc(-c4cnc([C@@H]5CCCN5C(=O)[C@@H](NC(=O)OC)C(C)C)[nH]4)cc3)sc2n1)C(C)C [Compound A2, (S,S,S,S)-(1-{2-[2-(4-{2-[1-(2-methoxycarbonylamino-3-methyl-butyryl)-pyrrolidin-2-yl]-3H-imidazol-4-yl}-phenyl)-imidazo[2,1-b]thiazol-6-ylcarbamoyl]-pyrrolidine-1-carbonyl}-2-methyl-propyl)-carbamic acid methyl ester] | 0.001 to 0.01 µM | 10 to 75 µM
COC(=O)N[C@H](C(=O)N1CCCC1c1ncc(-c2cn3cc(-c4ccc(-c5cnc([C@@H]6CCCN6C(=O)[C@@H](NC(=O)OC)C(C)C)[nH]5)cc4)nc3s2)[nH]1)C(C)C (stereo partly shown) [Compound A7] | < 0.001 µM | > 75 µM
CC(C)(C)OC(=O)N[C@@H](C(=O)N1CCOC[C@H]1C(=O)Nc1cn2cc(-c3ccccc3)sc2n1)c1ccccc1 [Compound A22] | > 0.1 µM | > 75 µM
CC(C)(C)OC(=O)N[C@@H](C(=O)N1CCC[C@H]1C(=O)Nc1cn2cc(C#Cc3ccccc3)sc2n1)c1ccccc1 [Compound A23] | > 0.1 µM | 10 to 75 µM
CC(C)(C)OC(=O)N[C@@H](C(=O)N1CCC[C@H]1C(=O)Nc1cn2cc(-c3ccccc3)sc2n1)c1ccccc1 [Compound A27] | 0.01 to 0.1 µM | > 75 µM
CC(C)(C)OC(=O)Nc1ccc(-c2cn3cc(NC(=O)[C@@H]4CCCN4C(=O)[C@H](NC(=O)OC(C)(C)C)c4ccccc4)nc3s2)cc1 [Compound A29] | > 0.1 µM | 10 to 75 µM
COC(=O)N[C@H](C(=O)N1CCC[C@H]1c1ncc(-c2ccc(-c3cn4cc(NC(=O)[C@@H]5CCCN5C(=O)[C@H](NC(=O)OC)c5ccccc5)nc4s3)cc2)[nH]1)C(C)C [Compound A30, (S,S,S,R)-[1-(2-{5-[4-(6-{[1-(2-methoxycarbonylamino-2-phenyl-acetyl)-pyrrolidin-2-carbonyl]-amino}-imidazo[2,1-b]thiazol-2-yl)-phenyl]-1H-imidazol-2-yl}-pyrrolidine-1-carbonyl)-2-methyl-propyl]-carbamic acid methyl ester] | < 0.001 µM | > 75 µM
COC(=O)N[C@H](C(=O)N1CCC[C@H]1c1ncc(-c2ccc(-c3cn4cc(NC(=O)C5CCCN5C(=O)CNC(=O)OC(C)(C)C)nc4s3)cc2)[nH]1)C(C)C (stereo partly shown) [Compound A31] | 0.01 to 0.1 µM | > 75 µM
COC(=O)N[C@H](C(=O)N1CCC[C@H]1C(=O)Nc1ccc(-c2cn3cc(NC(=O)C4CCCN4C(=O)[C@@H](NC(=O)OC)C(C)C)nc3s2)cc1)c1ccccc1 (stereo partly shown) [Compound A32] | < 0.001 µM | > 75 µM
COC(=O)N[C@H](C(=O)N1CCC[C@H]1c1ncc(-c2ccc(-c3cn4cc(-c5cnc(C6CCCN6C(=O)[C@@H](NC(=O)OC(C)(C)C)c6ccccc6)[nH]5)nc4s3)cc2)[nH]1)C(C)C (stereo partly shown) [Compound A33] | < 0.001 µM | > 75 µM
COC(=O)N[C@H](C(=O)N1CCC[C@H]1C(=O)Nc1ccc(-c2cn3cc(NC(=O)OC(C)(C)C)nc3s2)cc1)C(C)C [Compound A34] | 0.001 to 0.01 µM | 10 to 75 µM
COC(=O)N[C@H](C(=O)N1CCCC1c1ncc(-c2ccc(-c3csc4c(-c5cnc(C6CCCN6C(=O)OCc6ccccc6)[nH]5)csc34)cc2)[nH]1)C(C)C (stereo partly shown) [Compound A49] | < 0.001 µM | > 75 µM
CCOC(=O)N[C@@H](C(=O)N1CCC[C@H]1C(=O)Nc1cn2cc(-c3ccc(-c4cnc([C@@H]5CCCN5C(=O)[C@@H](NC(=O)OC)C(C)C)[nH]4)cc3)sc2n1)c1ccccc1 [Compound A55, (S,S,S,R)-[1-(2-{5-[4-(6-{[1-(2-ethoxycarbonylamino-2-phenylacetyl)-pyrrolidine-2-carbonyl]-amino}imidazo[2,1-b]thiazol-2-yl)-phenyl]-1H-imidazol-2-yl}pyrrolidine-1-carbonyl)-2-methyl-propyl]-carbamic acid methyl ester] | < 0.001 µM | 10 to 75 µM
COC(=O)N[C@H](C(=O)N1CCC[C@H]1c1ncc(-c2ccc(-c3cn4cc(NC(=O)[C@@H]5CCCN5C(=O)[C@H](NC(=O)OC(C)C)c5ccccc5)nc4s3)cc2)[nH]1)C(C)C [Compound A56] | < 0.001 µM | > 75 µM
COC(=O)NC(C(=O)N1CCCC1c1ncc(-c2cn3cc(-c4ccc(-c5cnc([C@@H]6CCCN6C(=O)[C@H](NC(=O)OC)c6ccccc6)[nH]5)cc4)nc3s2)[nH]1)c1ccccc1 (stereo partly shown) [Compound A60] | < 0.001 µM | > 75 µM
COC(=O)N[C@H](C(=O)N1CCCC1c1ncc(-c2ccc(-c3csc4c(-c5cnc(C6CCCN6C(=O)[C@@H](NC(=O)OC(C)(C)C)C(C)C)[nH]5)csc34)cc2)[nH]1)C(C)C (stereo partly shown) [Compound A76] | < 0.001 µM | > 75 µM
COC(=O)N[C@H](C(=O)N1CCCC1c1ncc(-c2ccc(-c3csc4c(-c5cnc(C6CCCN6C(=O)[C@H](NC(=O)OC)C(C)C)[nH]5)csc34)cc2)[nH]1)C(C)C (stereo partly shown) [Compound A77] | < 0.001 µM | > 75 µM
COC(=O)N[C@H](C(=O)N1CCCC1c1ncc(-c2csc3c(-c4ccc(-c5cnc(C6CCCN6C(=O)[C@@H](NC(=O)OC)C(C)C)[nH]5)cc4)csc23)[nH]1)c1ccccc1 (stereo partly shown) [Compound A78] | < 0.001 µM | > 75 µM
COC(=O)N[C@@H](C(=O)N1CCC[C@H]1C(=O)Nc1ccc(-c2cn3cc(NC(=O)[C@@H]4CCCN4C(=O)[C@H](NC(=O)OC)c4ccccc4)nc3s2)cc1)c1ccccc1 [Compound A79] | < 0.001 µM | > 75 µM
COC(=O)N[C@@H](C(=O)N1CCC[C@H]1C(=O)Nc1ccc(C#Cc2cn3cc(NC(=O)[C@@H]4CCCN4C(=O)[C@H](NC(=O)OC)c4ccccc4)nc3s2)cc1)c1ccccc1 [Compound A80] | < 0.001 µM | > 75 µM
COC(=O)N[C@H](C(=O)N1CCC[C@H]1c1ncc(-c2csc3c(-c4cnc([C@@H]5CCCN5C(=O)[C@@H](NC(=O)OC)C(C)C)[nH]4)csc23)[nH]1)C(C)C [Compound A82, ((S)-1-{(S)-2-[5-(6-{2-[(S)-1-((S)-2-methoxycarbonylamino-3-methyl-butyryl)-pyrrolidin-2-yl]-3H-imidazol-4-yl}-thieno[3,2-b]thiophen-3-yl)-1H-imidazol-2-yl]-pyrrolidine-1-carbonyl}-2-methyl-propyl)-carbamic acid methyl ester] | < 0.001 µM | 10 to 75 µM
COC(=O)N[C@H](C(=O)N1CCC[C@H]1c1ncc(C#Cc2csc3c(-c4ccc(-c5cnc([C@@H]6CCCN6C(=O)[C@@H](NC(=O)OC)C(C)C)[nH]5)cc4)csc23)[nH]1)C(C)C [Compound A84, [(S)-1-((S)-2-{4-[4-(6-{2-[(S)-1-((S)-2-methoxycarbonylamino-3-methyl-butyryl)-pyrrolidin-2-yl]-3H-imidazol-4-ylethynyl}-thieno[3,2-b]thiophen-3-yl)-phenyl]-1H-imidazol-2-yl}-pyrrolidine-1-carbonyl)-2-methyl-propyl]-carbamic acid methyl ester] | < 0.001 µM | > 75 µM
COC(=O)N[C@H](C(=O)N1CCCC1c1cc(-c2ccc(-c3csc4c(-c5ccc(-c6cnc(C7CCCN7C(=O)[C@@H](NC(=O)OC)C(C)C)[nH]6)cc5)csc34)cc2)[nH]n1)C(C)C (stereo partly shown) [Compound A87] | < 0.001 µM | > 75 µM
COC(=O)N[C@H](C(=O)N1CCCC1c1nc(-c2ccc(-c3cn4cc(-c5ccc(-c6cnc([C@@H]7CCCN7C(=O)[C@@H](NC(=O)OC)C(C)C)[nH]6)cc5)sc4n3)cc2)c[nH]1)C(C)C (stereo partly shown) [Compound A93] | < 0.001 µM | > 75 µM
COC(=O)N[C@H](C(=O)N1CCCC1c1ncc(-c2ccc(-c3csc4c(-c5ccccc5)csc34)cc2)[nH]1)C(C)C (stereo partly shown) [Compound A103] | 0.001 to 0.01 µM | 10 to 75 µM
COC(=O)N[C@H](C(=O)N1CCCC1c1nc(-c2ccc(-c3sc4cc(-c5ccc(-c6cnc([C@@H]7CCCN7C(=O)[C@@H](NC(=O)OC)C(C)C)[nH]6)cc5)sc4c3-c3ccc(-c4cnc(C5CCCN5C(=O)[C@@H](NC(=O)OC)C(C)C)[nH]4)cc3)cc2)c[nH]1)C(C)C (stereo partly shown) [Compound A105] | 0.01 to 0.1 µM | 10 to 75 µM
CC(C)(C)OC(=O)N1CCCC1c1ncc(-c2ccc(-c3cn4ccsc4n3)cc2)[nH]1 (stereo not shown) [Compound A167] | > 0.1 µM | 
